Measurements reported in PMC8989888, “Development of optimized drug-like small molecule inhibitors of the SARS-CoV-2 3CL protease for treatment of COVID-19” (Nature Communications, 2022).
Where “and” joins values, the source holds several entries; their conditions need not be identical. Equal values may be shown once. Entries after “also recorded” stand apart in the source; their conditions may differ. Read-outs that look alike come from different tables or passages of the source.

How the values were obtained:
human chymotrypsin = assay: Chymotrypsin activity assay (Panc-1 cell lysate); assay type: biochemical
SARS-CoV-2 [1] = assay: microbe, parasite or virus in culture; assay type: cell-based
SARS-CoV-2 [2] = assay: microbe, parasite or virus in culture; assay type: cell-based; settings: for EC50: Severe acute respiratory syndrome coronavirus 2, 24 h, read-out: SARS-CoV-2 Huh-7ACE2 EC50
SARS-CoV-2 [3] = assay: microbe, parasite or virus in culture; assay type: cell-based; settings: Severe acute respiratory syndrome coronavirus 2, read-out: SARS-CoV-2 EC50
Cathepsin L [4] = target: T1, Cathepsin L (Homo sapiens, UniProt P07711); settings: read-out: IC50 on human cathepsin L; cited from earlier work
T1 construct: Human liver; from tissue; host or cells: human liver

in vitro [5] = settings: human, plasma
in vitro [6] = settings: CD-1, mouse, plasma
in vitro [7] = settings: human, microsomes, pH 7.4
in vitro [8] = settings: CD-1, mouse, microsomes, pH 7.4
physchem = settings: aqueous buffer, kinetic from dmso stock
SARS-CoV-2 3CL protease [9] = target: T2, SARS-CoV-2 3CL protease (Severe acute respiratory syndrome coronavirus 2, UniProt P0DTD1); assay: biochemical; settings: for IC50: read-out: SARS-CoV-2 3CLpro IC50
SARS-CoV-2 3CL protease [10] = target: T2, SARS-CoV-2 3CL protease; assay: biochemical
ACE1 = ACE1 (Homo sapiens, UniProt P12821); assay: biochemical
ACE2 = ACE2 (Homo sapiens, UniProt Q9BYF1); assay: biochemical
Caspase 8 = Caspase 8 (Homo sapiens, UniProt Q14790); assay: biochemical
Cathepsin B = Cathepsin B (Homo sapiens, UniProt P07858); assay: biochemical
Cathepsin L [11] = target: T1, Cathepsin L; assay: Protease selectivity panel: Cathepsin L; assay type: biochemical
Elastase = Elastase (Homo sapiens, UniProt P08246); assay: biochemical
Factor Xa = Factor Xa (Homo sapiens, UniProt P00742); assay: biochemical
Furin = Furin (Homo sapiens, UniProt P09958); assay: biochemical
MMP 1 = MMP 1 (Homo sapiens, UniProt P03956); assay: biochemical
PLpro = PLpro (Severe acute respiratory syndrome coronavirus 2, UniProt P0DTD1); assay: Protease selectivity panel: PLpro; assay type: biochemical; settings: SARS-CoV-2 recombinant
Thrombin a = Thrombin a (Homo sapiens, UniProt P00734); assay: biochemical
TMPRSS2 = TMPRSS2 (Homo sapiens, UniProt O15393); assay: biochemical
Trypsin = Trypsin (Bos taurus, UniProt P00760); assay: Protease selectivity panel: Trypsin; assay type: biochemical; settings: Bovine pancreas
Urokinase = Urokinase (Homo sapiens, UniProt P00749); assay: biochemical
[12] = tested on: SARS coronavirus (strain: Urbani); assay: organism not typed; assay type: cell-based, SARS-CoV
[13] = tested on: MERS Coronavirus (strain: EMC); assay: microbe, parasite or virus in culture; assay type: cell-based, MERS-CoV
[14] = tested on: Human coronavirus alpha (strain: 229E); assay: organism not typed; assay type: cell-based, HCoV-229E
[15] = tested on: Human coronavirus beta (strain: OC43); assay: organism not typed; assay type: cell-based, HCoV-OC43; settings: Huh-7, read-out: EC50, human coronavirus OC43
[16] = tested on: Influenza A H1N1 (strain: California/07/2009); assay: microbe, parasite or virus in culture; assay type: cell-based
[17] = mouse, in vivo, po
[18] = both, C57BL/6, mouse, in vivo
in vitro [19] = assay: in vitro
SARS-CoV-2 [20] = assay: microbe, parasite or virus in culture; settings: Severe acute respiratory syndrome coronavirus 2, Caco-2, 72 h, read-out: SARS-CoV-2 Caco-2 EC90
Cathepsin K = Cathepsin K (Homo sapiens, UniProt P43235); assay: Protease selectivity panel: Cathepsin K
Cathepsin S = Cathepsin S (Homo sapiens, UniProt P25774); assay: Protease selectivity panel: Cathepsin S
[21] = In vivo safety study of NK01-63 (body weight); settings: C57BL/6 mice, 20 mg/kg IP or PO once per day, 14 days, vs vehicle

T1 sequence (P07711 114-333): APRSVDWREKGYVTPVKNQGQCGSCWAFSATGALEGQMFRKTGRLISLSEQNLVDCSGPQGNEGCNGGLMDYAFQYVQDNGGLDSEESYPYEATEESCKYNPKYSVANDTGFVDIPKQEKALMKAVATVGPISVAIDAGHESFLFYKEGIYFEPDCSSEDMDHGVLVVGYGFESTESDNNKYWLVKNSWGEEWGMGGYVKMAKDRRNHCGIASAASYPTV
Trypsin, sequence (P00760 24-246): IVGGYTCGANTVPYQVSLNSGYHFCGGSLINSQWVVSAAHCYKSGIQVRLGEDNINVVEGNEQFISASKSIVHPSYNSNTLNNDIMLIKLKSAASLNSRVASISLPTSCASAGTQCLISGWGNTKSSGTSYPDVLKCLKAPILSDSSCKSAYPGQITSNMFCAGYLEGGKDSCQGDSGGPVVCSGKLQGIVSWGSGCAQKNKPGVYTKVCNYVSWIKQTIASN
Furin, sequence (P09958 108-715): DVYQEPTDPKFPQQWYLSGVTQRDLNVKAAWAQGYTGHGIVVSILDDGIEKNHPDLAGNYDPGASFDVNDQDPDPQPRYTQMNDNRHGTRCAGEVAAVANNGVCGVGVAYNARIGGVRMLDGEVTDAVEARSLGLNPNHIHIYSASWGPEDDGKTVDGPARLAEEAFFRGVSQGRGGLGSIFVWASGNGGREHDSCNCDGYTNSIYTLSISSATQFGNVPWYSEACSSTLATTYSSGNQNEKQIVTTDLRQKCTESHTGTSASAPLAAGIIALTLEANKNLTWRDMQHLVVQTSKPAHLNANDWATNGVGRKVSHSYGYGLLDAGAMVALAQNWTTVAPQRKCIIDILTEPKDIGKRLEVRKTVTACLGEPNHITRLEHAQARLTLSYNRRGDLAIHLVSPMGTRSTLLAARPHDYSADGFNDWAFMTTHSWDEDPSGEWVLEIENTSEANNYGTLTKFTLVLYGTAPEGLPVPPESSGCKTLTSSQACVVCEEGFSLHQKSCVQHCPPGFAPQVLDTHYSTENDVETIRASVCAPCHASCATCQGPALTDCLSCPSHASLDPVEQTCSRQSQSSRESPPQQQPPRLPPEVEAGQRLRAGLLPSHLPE
Caspase 8, sequence (Q14790 217-479): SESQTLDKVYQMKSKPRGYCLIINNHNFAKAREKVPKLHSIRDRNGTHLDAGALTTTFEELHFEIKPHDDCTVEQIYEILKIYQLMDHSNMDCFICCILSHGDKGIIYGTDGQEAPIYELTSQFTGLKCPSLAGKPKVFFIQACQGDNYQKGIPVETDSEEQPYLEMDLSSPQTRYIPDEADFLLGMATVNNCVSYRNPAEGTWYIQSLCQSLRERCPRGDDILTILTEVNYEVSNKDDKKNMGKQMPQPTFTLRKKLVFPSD
Cathepsin S, sequence (P25774 115-331): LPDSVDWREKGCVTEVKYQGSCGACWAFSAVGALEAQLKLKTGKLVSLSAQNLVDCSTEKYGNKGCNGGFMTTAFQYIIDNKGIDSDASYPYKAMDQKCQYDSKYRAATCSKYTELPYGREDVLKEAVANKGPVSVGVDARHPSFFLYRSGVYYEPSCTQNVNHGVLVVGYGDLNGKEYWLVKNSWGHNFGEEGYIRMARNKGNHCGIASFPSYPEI
MMP 1, sequence (P03956 100-268): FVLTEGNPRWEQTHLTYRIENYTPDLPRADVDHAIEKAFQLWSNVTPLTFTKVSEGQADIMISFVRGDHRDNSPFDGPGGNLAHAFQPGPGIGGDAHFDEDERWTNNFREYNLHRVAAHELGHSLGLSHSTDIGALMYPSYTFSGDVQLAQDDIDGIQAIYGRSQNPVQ
Elastase, sequence (P08246 30-267): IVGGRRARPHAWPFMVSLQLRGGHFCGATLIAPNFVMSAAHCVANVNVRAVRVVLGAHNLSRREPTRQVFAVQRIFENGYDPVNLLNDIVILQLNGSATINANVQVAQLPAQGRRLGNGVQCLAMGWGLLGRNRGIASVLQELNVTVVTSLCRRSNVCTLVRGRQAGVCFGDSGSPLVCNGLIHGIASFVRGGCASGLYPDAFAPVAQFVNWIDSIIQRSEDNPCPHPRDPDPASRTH
ACE1, sequence (P12821 30-1261): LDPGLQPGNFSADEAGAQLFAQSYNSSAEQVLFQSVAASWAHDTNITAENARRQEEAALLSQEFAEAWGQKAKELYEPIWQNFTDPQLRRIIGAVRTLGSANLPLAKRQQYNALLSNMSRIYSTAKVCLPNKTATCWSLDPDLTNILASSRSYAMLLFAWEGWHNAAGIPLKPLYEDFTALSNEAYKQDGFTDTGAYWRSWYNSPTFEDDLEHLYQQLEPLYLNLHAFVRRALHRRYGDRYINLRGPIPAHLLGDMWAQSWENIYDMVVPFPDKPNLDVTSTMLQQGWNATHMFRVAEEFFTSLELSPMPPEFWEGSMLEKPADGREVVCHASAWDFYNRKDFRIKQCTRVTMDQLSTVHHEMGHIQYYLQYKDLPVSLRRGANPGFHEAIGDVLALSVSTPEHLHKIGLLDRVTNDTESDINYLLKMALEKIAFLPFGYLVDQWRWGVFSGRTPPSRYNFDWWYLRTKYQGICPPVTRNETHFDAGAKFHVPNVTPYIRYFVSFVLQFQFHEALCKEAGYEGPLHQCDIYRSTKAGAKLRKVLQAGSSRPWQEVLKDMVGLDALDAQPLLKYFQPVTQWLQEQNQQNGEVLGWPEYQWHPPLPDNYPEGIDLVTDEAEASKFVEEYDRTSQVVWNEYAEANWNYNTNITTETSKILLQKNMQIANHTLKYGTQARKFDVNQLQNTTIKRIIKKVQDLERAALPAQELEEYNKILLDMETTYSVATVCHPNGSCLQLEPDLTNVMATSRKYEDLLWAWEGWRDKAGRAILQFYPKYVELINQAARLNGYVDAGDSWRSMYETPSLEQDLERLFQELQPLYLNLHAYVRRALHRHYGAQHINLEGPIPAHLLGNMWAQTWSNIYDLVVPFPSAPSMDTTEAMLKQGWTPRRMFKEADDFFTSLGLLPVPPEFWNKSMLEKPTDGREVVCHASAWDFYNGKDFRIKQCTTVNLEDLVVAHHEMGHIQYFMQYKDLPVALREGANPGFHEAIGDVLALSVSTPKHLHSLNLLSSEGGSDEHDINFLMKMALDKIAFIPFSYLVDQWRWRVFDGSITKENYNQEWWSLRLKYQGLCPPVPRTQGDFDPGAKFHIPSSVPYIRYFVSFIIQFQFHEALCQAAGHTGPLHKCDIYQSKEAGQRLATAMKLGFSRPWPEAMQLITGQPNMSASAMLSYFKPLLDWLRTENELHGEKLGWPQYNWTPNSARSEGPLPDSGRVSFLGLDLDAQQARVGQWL
Cathepsin K, sequence (P43235 115-329): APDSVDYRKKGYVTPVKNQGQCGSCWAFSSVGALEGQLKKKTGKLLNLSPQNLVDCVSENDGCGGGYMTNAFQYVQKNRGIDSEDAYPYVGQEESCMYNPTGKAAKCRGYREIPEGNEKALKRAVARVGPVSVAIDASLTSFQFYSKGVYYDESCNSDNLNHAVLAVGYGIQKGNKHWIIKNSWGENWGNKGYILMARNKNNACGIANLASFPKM
Factor Xa, sequence (P00742 235-488): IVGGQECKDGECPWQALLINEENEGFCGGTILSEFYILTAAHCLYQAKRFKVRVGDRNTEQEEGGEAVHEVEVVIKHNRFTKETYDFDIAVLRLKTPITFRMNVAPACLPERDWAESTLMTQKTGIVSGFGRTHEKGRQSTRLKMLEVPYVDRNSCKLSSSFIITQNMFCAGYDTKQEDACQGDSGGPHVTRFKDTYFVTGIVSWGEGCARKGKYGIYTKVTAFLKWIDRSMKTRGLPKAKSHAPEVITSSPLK
Factor Xa, sequence (P00742 41-179): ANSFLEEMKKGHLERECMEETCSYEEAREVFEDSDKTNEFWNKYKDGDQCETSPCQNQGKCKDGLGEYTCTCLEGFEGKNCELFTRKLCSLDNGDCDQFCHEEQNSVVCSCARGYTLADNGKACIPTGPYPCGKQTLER
ACE2, sequence (Q9BYF1 18-740): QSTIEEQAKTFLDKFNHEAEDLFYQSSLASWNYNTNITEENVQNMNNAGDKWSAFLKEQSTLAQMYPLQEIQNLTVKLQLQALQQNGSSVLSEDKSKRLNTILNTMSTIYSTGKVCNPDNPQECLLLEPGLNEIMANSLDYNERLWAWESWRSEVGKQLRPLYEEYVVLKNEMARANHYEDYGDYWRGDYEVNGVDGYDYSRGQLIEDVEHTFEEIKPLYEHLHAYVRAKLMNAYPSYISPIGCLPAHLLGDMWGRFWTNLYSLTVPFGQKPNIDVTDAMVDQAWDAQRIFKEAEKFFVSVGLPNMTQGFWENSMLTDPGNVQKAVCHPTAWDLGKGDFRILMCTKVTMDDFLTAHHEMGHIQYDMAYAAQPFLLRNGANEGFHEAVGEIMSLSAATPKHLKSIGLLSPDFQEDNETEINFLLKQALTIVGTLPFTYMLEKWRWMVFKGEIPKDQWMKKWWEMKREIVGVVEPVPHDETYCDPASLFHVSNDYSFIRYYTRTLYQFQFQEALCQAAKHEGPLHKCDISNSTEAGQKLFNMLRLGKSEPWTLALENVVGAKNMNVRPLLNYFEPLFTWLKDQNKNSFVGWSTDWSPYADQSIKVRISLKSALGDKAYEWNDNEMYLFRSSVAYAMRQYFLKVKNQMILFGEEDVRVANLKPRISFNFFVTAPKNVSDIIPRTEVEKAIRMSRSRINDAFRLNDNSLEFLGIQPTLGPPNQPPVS
TMPRSS2, sequence (O15393 106-492): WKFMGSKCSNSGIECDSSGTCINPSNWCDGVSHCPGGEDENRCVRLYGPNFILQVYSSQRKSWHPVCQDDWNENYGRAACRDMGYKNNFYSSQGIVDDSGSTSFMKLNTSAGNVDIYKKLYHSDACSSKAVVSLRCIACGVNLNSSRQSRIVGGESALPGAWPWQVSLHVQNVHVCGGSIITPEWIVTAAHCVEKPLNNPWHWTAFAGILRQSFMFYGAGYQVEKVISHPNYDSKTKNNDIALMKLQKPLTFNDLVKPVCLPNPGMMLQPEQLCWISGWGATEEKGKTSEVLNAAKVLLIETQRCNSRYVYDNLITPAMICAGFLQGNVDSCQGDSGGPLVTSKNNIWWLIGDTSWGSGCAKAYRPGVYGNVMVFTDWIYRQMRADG

For `CC(C)CC(NC(=O)OCc1ccccc1)C(=O)NC(CC1CCNC1=O)C(O)S(=O)(=O)O` (stereo not shown) [GC376, reference compound], the Normalized chymotrypsin activity (human chymotrypsin) was 1.05 and 0.8698 and 0.9664, the “Protease activity in cell lysate normalised to DMSO (Figure S22D)” value (human chymotrypsin) was 1.05 and 0.8698 and 0.9664 and the EC50 (SARS-CoV-2 [1]; Severe acute respiratory syndrome coronavirus 2, Vero C1008, 72 h, read-out: EC50, inhibition of SARS-CoV-2 viral replication) was 6000 nM. For the same compound, the EC50 (SARS-CoV-2 [1]; Severe acute respiratory syndrome coronavirus 2, Vero C1008, read-out: SARS-CoV-2 Vero E6 EC50) was 9000 nM, the EC50 (SARS-CoV-2 [2]) was 51 nM and the EC50 (SARS-CoV-2 [3]) was 146 nM. The “concentrations at which turbidity was observed” value was 25000 to 200000 µM, the IC50 (Cathepsin L [4]) was 0.33 nM and the half-life (in vitro [5]) was over 4 h. For the same compound, the half-life (in vitro [6]) was over 4 h, the half-life (in vitro [7]) was over 1.33 h and the half-life (in vitro [8]) was over 1.33 h. It also gave a solubility (physchem) of at most 1000 µM.

For `CC(C)C[C@H](NC(=O)OCc1cccc(C(F)(F)F)c1)C(=O)N[C@@H](C[C@@H]1CCNC1=O)C(O)S(=O)(=O)O` (stereo partly shown) [NK01-63], the IC50 (SARS-CoV-2 3CL protease [9]; 20 nM protease) was 16 nM, the “normalized activity, dose-response curve (Figure S16)” value (shortened to “normalized activity”) (SARS-CoV-2 3CL protease [9]; Concentration of inhibitor (nM) 0.19382) was 93.111 and 89.2676 and the “normalized activity” value (SARS-CoV-2 3CL protease [9]; Concentration of inhibitor (nM) 0.49485) was 89.4126 and 81.5809. The “normalized activity” value (SARS-CoV-2 3CL protease [9]; Concentration of inhibitor (nM) 0.79588) was 77.0123 and 75.7796, the “normalized activity” value (SARS-CoV-2 3CL protease [9]; Concentration of inhibitor (nM) 1.09691) was 63.0167 and 61.2038 and the “normalized activity” value (SARS-CoV-2 3CL protease [9]; Concentration of inhibitor (nM) 1.39794) was 43.8724 and 49.3111. For the same compound, the “normalized activity” value (SARS-CoV-2 3CL protease [9]; Concentration of inhibitor (nM) 1.69897) was 23.8579 and 30.4568, the “normalized activity” value (SARS-CoV-2 3CL protease [9]; Concentration of inhibitor (nM) 2) was 10.3698 and 13.7056 and the “normalized activity” value (SARS-CoV-2 3CL protease [9]; Concentration of inhibitor (nM) 2.30103) was 8.412 and 10.6599. The “normalized activity” value (SARS-CoV-2 3CL protease [9]; Concentration of inhibitor (nM) 2.60206) was 5.004 and 8.702, the “normalized activity” value (SARS-CoV-2 3CL protease [9]; Concentration of inhibitor (nM) -0.10721) was 91.5881 and 97.1719 and the “normalized activity” value (SARS-CoV-2 3CL protease [9]; Concentration of inhibitor (nM) -0.40824) was 100 and 96.1566. For the same compound, the IC50 (SARS-CoV-2 3CL protease [9]; Supplementary Table 2) was 6 nM, the “observed inactivation rate vs compound concentration (Figure S19, replicate values)” value (SARS-CoV-2 3CL protease [10]) was 0.0289 and 0.04017 and 0.02561 and 0.0288 and 0.05998 and 0.02398 and 0.0512 and 0.02223 and 0.03571 and 0.0324 and 0.05689 and 0.02237 and 0.0081 and 0.01635 and 0.01687 and the kinact/KI (SARS-CoV-2 3CL protease [10]; read-out: SARS-CoV-2 3CLpro kinact/KI) was 73300 M⁻¹ s⁻¹. For the same compound, the IC50 (ACE1) was over 100000 nM, the IC50 (ACE2) was over 100000 nM and the IC50 (Caspase 8) was 18000 nM. For the same compound, the IC50 (Cathepsin B) was 1100 nM, the IC50 (Cathepsin L [11]; Human liver, substrate 1 (Z-FR-AMC), […] Cathepsin L, read-out: IC50) was 6 nM and the IC50 (Cathepsin L [11]; Human liver, substrate 2 (MCA-PLGL-Dap(Dnp)-AR-NH2), 0.5 nM Cathepsin L, read-out: IC50) was 170 nM. The IC50 (Cathepsin L [11]; read-out: IC50 on human cathepsin L) was 6 nM, the IC50 (Elastase) was over 100000 nM and the IC50 (Factor Xa) was over 100000 nM. The IC50 (Furin) was over 100000 nM, the IC50 (MMP 1) was over 100000 nM and the IC50 (PLpro) was over 100000 nM. It also gave an IC50 (Thrombin a) of over 100000 nM, an IC50 (TMPRSS2) of over 100000 nM and an IC50 (Trypsin) of over 100000 nM. The IC50 (Urokinase) was over 100000 nM, the “inhibition of SARS-CoV-2 (Figure s17b dose-response, replicate values)” value (SARS-CoV-2 [2]) was 85.8805 and 70.4035 and 120.64 and 101.121 and 104.666 and 80.4107 and 75.7397 and 52.4625 and 52.0629 and 53.1789 and 26.443 and 29.7439 and 43.7589 and 41.2695 and 18.2065 and 24.2009 and 38.2936 and 12.6905 and -1.598 and 19.9884 and -12.0156 and the EC50 (SARS-CoV-2 [2]) was 6 nM. The EC50 (SARS-CoV-2 [3]) was 146 nM, the EC50 ([12]; Vero 76, read-out: SARS-CoV Vero 76 EC50) was under 3000 nM and the EC50 ([12]; read-out: SARS-CoV Vero 76 EC50) was 2100 nM. For the same compound, the EC50 ([13]; Middle East respiratory syndrome-related coronavirus, Vero 76, read-out: MERS-CoV Vero 76 EC50) was under 1000 nM, the EC50 ([13]; read-out: MERS-CoV Vero 76 EC50) was 820 nM and the EC50 ([14]; Huh-7, read-out: EC50, human coronavirus 229E) was under 100 nM. For the same compound, the EC50 ([14]; Huh-7, read-out: HCoV-229E Huh-7 EC50) was 170 nM, the EC50 [15] was under 100 nM and the “effect on replication of Influenza H1N1 (in words)” value [16] was “no effect was observed”. For the same compound, the EC50 ([16]; Influenza A virus, H1N1, MDCK, read-out: Influenza A (H1N1) MDCK EC50) was over 100000 nM, the “appearance of dosing solution in water” value (2 mg/ml (3.5 mM) in water) was “the solution was clear” and the “Body weight relative to day 0 (Figure 6A)” value [17] was 100. The “concentration in plasma and lung as multiple of EC90” value [18] was over 100 x EC90, the CC50 (in vitro [19]) was over 100000 nM and the EC90 (SARS-CoV-2 [20]) was 81 nM. For the same compound, the IC50 (Cathepsin K) was 40 nM, the IC50 (Cathepsin S) was 30 nM and the “body weight change / in vivo toxicity” value [21] was “no in vivo toxicity via either route of administration; also recorded: No significant change in body weight”.
